Literature values, collected in patent publication US20250255875A1, “BIFUNCTIONAL CHIMERIC MOLECULES FOR LABELING OF KINASES WITH TARGET BINDING MOIETIES AND METHODS OF USE THEREOF” (The Brigham and Women's Hospital, Inc., priority 2022, published 2025).

What was measured:
Recombinant PK… (PKCζ) = target: T1, Recombinant PK… (PKCζ) (Homo sapiens, UniProt Q05513)
T1 sequence (Q05513 1-592): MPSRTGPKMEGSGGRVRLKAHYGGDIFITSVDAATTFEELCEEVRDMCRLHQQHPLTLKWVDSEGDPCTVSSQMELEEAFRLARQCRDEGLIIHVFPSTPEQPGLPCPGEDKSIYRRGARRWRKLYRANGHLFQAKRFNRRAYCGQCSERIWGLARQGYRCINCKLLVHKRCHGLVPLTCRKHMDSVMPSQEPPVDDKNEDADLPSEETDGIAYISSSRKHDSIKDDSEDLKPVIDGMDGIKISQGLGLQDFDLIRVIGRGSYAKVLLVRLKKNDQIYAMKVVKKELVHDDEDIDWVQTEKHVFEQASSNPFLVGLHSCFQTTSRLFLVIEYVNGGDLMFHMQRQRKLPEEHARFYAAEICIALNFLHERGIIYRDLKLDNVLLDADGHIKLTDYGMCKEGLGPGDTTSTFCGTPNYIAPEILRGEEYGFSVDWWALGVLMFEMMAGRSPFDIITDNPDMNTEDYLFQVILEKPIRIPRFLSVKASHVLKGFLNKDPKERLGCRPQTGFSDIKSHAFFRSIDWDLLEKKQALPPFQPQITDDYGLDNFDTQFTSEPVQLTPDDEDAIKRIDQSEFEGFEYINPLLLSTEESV

NF-kB = details: mice
mutant EGFR = details: 0.01-10 uM
MERS-COV = details: in vitro
p38α MAPK = p38α MAPK (Homo sapiens, UniProt Q16539)
Chain of p38α MAPK (Q16539 whole entry): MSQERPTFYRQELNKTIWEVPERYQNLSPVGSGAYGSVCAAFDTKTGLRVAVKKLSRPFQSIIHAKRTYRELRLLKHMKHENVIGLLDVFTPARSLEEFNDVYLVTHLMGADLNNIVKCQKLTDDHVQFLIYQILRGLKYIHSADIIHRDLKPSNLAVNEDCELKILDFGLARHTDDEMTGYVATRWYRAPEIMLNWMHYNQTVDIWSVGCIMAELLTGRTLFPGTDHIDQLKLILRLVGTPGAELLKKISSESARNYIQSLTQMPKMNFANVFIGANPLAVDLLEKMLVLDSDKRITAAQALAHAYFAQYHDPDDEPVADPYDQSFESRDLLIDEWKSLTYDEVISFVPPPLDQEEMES

c-Met = c-Met (Homo sapiens, UniProt P08581)
Chain of c-Met (P08581 25-1390): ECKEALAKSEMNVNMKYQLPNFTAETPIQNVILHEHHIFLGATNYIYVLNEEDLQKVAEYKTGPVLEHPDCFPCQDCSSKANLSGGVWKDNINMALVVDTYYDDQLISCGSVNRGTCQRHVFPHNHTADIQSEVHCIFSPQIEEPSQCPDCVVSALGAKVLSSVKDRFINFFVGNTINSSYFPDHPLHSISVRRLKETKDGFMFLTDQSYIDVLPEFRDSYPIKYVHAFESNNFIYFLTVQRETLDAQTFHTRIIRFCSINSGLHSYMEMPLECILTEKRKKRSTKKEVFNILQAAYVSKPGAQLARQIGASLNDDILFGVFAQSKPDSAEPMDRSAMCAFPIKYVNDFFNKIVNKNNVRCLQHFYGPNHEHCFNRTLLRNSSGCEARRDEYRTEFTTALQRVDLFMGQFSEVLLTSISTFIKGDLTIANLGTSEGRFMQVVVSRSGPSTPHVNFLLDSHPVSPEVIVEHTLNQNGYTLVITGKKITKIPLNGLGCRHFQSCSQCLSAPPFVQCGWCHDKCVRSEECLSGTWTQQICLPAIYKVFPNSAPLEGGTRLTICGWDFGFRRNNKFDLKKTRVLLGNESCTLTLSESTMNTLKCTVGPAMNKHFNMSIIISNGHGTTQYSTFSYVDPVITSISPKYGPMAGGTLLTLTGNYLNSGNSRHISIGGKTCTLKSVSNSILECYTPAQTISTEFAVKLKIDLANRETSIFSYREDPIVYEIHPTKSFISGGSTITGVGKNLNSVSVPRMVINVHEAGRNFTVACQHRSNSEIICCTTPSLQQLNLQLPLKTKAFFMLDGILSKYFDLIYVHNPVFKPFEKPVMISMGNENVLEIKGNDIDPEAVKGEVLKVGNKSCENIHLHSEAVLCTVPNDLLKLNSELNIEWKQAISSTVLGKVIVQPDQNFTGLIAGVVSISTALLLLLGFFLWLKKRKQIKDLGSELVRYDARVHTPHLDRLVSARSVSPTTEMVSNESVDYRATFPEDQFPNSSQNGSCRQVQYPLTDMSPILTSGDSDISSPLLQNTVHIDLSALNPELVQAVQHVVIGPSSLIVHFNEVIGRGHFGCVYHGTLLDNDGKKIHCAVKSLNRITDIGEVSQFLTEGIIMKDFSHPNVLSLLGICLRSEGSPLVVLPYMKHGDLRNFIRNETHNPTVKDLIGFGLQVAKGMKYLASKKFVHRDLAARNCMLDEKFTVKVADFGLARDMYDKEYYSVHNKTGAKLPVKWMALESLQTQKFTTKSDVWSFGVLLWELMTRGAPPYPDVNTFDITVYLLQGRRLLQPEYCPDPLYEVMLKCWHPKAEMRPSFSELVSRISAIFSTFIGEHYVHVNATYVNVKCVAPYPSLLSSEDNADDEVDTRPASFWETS

[1] = test system: breast, prostate, colon and pancreatic carcinoma xenografts; details: in vivo
Lyn kinase = details: knockout mice
[2] = not given; remark: listed apart in the source

SMILES	reporter gene assay % inhibu at 5 μM (NF-…B Pathway) [%]	cell-free assay % inhibu at 62.5 μM (Recombinant PK… (PKCζ)) [%]	also measured
CC(C)(C)C1=NN(c2ccc(Cl)cc2)C(c2ccc(O)cc2)C1 (stereo not drawn) [1a]	75.1	–	–
CC(C)(C)C1=NN(c2ccc(F)cc2)C(c2ccc(O)cc2)C1 (stereo not drawn) [1b]	63.8	95.5	–
CC(C)(C)C1=NN(c2ccc(Br)cc2)C(c2ccc(O)cc2)C1 (stereo not drawn) [1c]	58.4	93.2	–
Cc1ccc(N2N=C(C(C)(C)C)CC2c2ccc(O)cc2)cc1 (stereo not drawn) [1e]	62.9	–	–
CC(C)(C)C1=NN(c2cccc(Cl)c2)C(c2ccc(O)cc2)C1 (stereo not drawn) [1h]	64.6	96.8	–
CC(C)(C)C1=NN(c2cccc(C(F)(F)F)c2)C(c2ccc(O)cc2)C1 (stereo not drawn) [1j]	89.7	96.1	–
Cc1cccc(N2N=C(C(C)(C)C)CC2c2ccc(O)cc2)c1 (stereo not drawn) [1k]	73.7	91.7	–
Cc1ccc2nc(NCCN)c3ncc(C)n3c2c1.Cl [BMS-345541]	–	–	activity against LPS-induced NF-kB activation (NF-kB): active
O=C(NOCC(O)CO)c1ccc(F)c(F)c1Nc1ccc(I)cc1F (stereo not drawn) [Compound 35]	–	–	Sol (pH 6.5): 255, μg/mL
O=C(Nc1nccs1)C(c1cc(F)ccc1O)N1Cc2ccc(-c3ccc(N4CCNCC4)cc3)cc2C1=O (stereo not drawn) [JBJ-04-125-02]	–	–	EGFR phosphorylation (mutant EGFR): inhibited EGFR phosphorylation
CO[C@H]1C[C@@H]2CC[C@@H](C)[C@@](O)(O2)C(=O)C(=O)N2CCCC[C@H]2C(=O)O[C@H]([C@H](C)C[C@@H]2CC[C@@H](O)[C@H](OC)C2)CC(=O)[C@H](C)/C=C(\C)[C@@H](O)[C@@H](OC)C(=O)[C@H](C)C[C@H](C)/C=C/C=C/C=C/1C [Sirolimus]	–	–	MERS-COV infection of Huh7 cells (MERS-COV): inhibits MERS-COV infection
O=C1c2ccc(Nc3ccc(F)cc3F)cc2CCc2ccc(OC[C@H](O)CO)cc21 [Skepinone-B]	–	–	residence time (p38α MAPK): 150 s
O=C1NC(=O)[C@@H](c2cn3c4c(cccc24)CCC3)[C@@H]1c1c[nH]c2ccccc12 [Tivantinib, tivantinib]	–	–	selectivity for c-Met over other kinases tested (c-Met): 10-100 time; growth of carcinoma xenografts [1]: inhibition of growth
Cc1cccc(Oc2cnc(=O)[nH]c2)c1 [Tolimidone, tolimidone]	–	–	glucose lowering when Lyn kinase was absent (Lyn kinase): did not lower glucose
CC(=O)Nc1cccc(-n2c(=O)n(C3CC3)c(=O)c3c(Nc4ccc(I)cc4F)n(C)c(=O)c(C)c32)c1 [Trametinib]	–	–	Absorption/distribution of an oral dose of tablet [2]: 72%
